Holding throughout (type): cell-based
One series deals with p-STAT5. As to the kind of experiment: Immunoblot of p-STAT5 (downstream signaling) in HEL cells. Particulars: immunoblot (FIG. 1). How it is done: (§1) To confirm JA-189 and JA-213 are true JAK degraders, HEL cell were treated with these two compounds at various compounds concentrations.
(§2) HEL, RS4;11, MV4;11, Kasumi-1 and other cells were cultured at 37° C. with 5% CO2 in RPMI 1640 or DMEM Medium supplemented with 10% fetal bovine serum. Cells were authenticated using the short tandem repeat (STR) assays. Mycoplasma test results were negative.
(§3) Rabbit anti-JAK1 antibody (3344S), anti-JAK2 antibody (3230S), anti-JAK3 antibody (8827S), anti-TYK2 antibody (14193S), anti-FLT3 antibody (3462S), anti-RET antibody (14556S), anti-phospho-STAT3 (Tyr705) antibody (9145S) and anti-phospho-STAT5 (Tyr694) antibody (4322S) were purchased from Cell Signaling Technology. Rabbit anti-GSPT1 antibody (ab126090) was purchased from Abcam. HRP-conjugated anti-α-tubulin antibody was produced in house. Media and other cell culture reagents were purchased from Thermo Fisher. The CellTiter-Glo Luminescent Assay kit was purchased from Promega.
(§4) Cultured cells were washed with cold PBS once and lysed in cold RIPA buffer supplemented with protease inhibitors and phosphatase inhibitors (Beyotime Biotechnology). […] Total protein concentrations in the lysates were determined by BCA assays (Beyotime Biotechnology). […] Protein bands were quantitated using the accompanied software provided by Bio-Rad.
Background: A western blot detects proteins with antibodies after separation by electrophoresis.

For series [1], the system named is immortalized human lung fibroblast IMR-90 cells. The experiment in a line: Cell viability of non-cancerous lung fibroblast IMR-90 cells. As to conditions: IMR-90, 3 days, 3-fold serial dilution (FIG. 6). How it is done: Immortalized human lung fibroblast IMR-90 and keratinocyte HACAT cells were treated with JA-189 or JA-213 for 3 days at indicated concentrations following a 3-fold serial dilution.
(§5) Cells were seeded at a density of 5000 cells per well in 96-well assay plates and treated with test compounds following a 8-point or 12-point 3-fold serial dilution. Three days later, cell viability was determined using the CellTiter-Glo assay kit according to the manufacturer's instructions. The dose-response curves were determined and IC50 values were calculated using the GraphPad Prism software following a nonlinear regression (least squares fit) method.

The subject of a further series is CCRF-CEM cells. The experiment in a line: Cell viability assay (CellTiter-Glo) in CCRF-CEM cells. As to conditions: Homo sapiens, 72 h, T-ALL, 3 days. How it is done: (§6) MV4;11, RS4;11, Kasumi-1, HEL and other cells were treated with NVP-BSK805, TG101209 or selected degraders for 3 days at indicated concentrations following a 3-fold serial dilution.
as §2, §5

A further series deals with T1, JAK3 (Homo sapiens, UniProt P52333).
T1 construct: immunoblot of JAK1/2/3 proteins expressed in HEL cells; endogenous in cells; host or cells: HEL cells
T1 sequence (P52333 1-1124): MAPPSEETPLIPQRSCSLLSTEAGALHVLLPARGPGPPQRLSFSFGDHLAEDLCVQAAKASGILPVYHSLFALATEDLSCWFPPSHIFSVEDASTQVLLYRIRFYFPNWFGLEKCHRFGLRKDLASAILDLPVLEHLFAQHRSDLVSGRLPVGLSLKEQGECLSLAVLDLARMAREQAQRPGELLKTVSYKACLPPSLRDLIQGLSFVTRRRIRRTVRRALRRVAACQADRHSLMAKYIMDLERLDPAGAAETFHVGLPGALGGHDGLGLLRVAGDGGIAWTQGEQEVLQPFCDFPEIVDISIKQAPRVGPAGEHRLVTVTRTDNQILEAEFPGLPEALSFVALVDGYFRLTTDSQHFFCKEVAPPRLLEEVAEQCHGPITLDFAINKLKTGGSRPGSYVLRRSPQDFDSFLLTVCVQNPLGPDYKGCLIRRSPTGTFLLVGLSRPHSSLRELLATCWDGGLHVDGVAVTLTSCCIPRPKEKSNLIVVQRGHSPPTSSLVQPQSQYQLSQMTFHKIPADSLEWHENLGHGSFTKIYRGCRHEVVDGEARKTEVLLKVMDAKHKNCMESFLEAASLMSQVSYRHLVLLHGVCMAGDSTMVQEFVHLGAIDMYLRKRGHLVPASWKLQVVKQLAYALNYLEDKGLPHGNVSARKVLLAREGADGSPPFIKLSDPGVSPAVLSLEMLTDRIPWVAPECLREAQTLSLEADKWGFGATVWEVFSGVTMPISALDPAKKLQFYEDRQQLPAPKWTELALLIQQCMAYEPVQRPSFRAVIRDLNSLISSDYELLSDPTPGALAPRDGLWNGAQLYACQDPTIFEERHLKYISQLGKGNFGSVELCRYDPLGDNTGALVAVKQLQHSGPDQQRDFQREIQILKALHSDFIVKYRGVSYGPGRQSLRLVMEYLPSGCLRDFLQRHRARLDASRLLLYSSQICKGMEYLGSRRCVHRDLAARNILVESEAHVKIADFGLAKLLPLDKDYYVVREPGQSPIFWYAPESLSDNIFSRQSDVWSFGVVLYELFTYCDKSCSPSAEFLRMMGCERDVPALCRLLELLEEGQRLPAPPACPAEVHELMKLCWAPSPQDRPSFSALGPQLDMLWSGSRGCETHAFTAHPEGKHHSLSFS
As to the kind of experiment: Immunoblot of JAK3 protein level in HEL cells. As to conditions: immunoblot (FIG. 1). How it is done:
as §1, §2, §3, §4

The subject of another series is MV4;11 cells. As to the kind of experiment: Cell viability assay (CellTiter-Glo) in MV4;11 cells. Particulars: for IC50: Homo sapiens, 72 h, MV4;11, AML, cell viability, 3 days; for cell viability inhibition in combination with pomalidomide: MV4;11, 3 days, pomalidomide at 10 μM (FIG. 4). How it is done: as §6, §2, §5
In general terms: In ATP-based viability assays light output follows the ATP content of the culture.

Another series relates to NOMO-1 cells. As to the kind of experiment: Cell viability assay (CellTiter-Glo) in NOMO-1 cells. As to conditions: Homo sapiens, 72 h, NOMO-1, AML, 3 days. How it is done:
as §6, §2, §5

For the next series, the target named is T2, JAK1 (Homo sapiens, UniProt P23458).
T2 construct: immunoblot of JAK1/3 proteins expressed in RS4;11 cells; endogenous in cells; host or cells: RS4;11 cells
T2 sequence (P23458 whole entry): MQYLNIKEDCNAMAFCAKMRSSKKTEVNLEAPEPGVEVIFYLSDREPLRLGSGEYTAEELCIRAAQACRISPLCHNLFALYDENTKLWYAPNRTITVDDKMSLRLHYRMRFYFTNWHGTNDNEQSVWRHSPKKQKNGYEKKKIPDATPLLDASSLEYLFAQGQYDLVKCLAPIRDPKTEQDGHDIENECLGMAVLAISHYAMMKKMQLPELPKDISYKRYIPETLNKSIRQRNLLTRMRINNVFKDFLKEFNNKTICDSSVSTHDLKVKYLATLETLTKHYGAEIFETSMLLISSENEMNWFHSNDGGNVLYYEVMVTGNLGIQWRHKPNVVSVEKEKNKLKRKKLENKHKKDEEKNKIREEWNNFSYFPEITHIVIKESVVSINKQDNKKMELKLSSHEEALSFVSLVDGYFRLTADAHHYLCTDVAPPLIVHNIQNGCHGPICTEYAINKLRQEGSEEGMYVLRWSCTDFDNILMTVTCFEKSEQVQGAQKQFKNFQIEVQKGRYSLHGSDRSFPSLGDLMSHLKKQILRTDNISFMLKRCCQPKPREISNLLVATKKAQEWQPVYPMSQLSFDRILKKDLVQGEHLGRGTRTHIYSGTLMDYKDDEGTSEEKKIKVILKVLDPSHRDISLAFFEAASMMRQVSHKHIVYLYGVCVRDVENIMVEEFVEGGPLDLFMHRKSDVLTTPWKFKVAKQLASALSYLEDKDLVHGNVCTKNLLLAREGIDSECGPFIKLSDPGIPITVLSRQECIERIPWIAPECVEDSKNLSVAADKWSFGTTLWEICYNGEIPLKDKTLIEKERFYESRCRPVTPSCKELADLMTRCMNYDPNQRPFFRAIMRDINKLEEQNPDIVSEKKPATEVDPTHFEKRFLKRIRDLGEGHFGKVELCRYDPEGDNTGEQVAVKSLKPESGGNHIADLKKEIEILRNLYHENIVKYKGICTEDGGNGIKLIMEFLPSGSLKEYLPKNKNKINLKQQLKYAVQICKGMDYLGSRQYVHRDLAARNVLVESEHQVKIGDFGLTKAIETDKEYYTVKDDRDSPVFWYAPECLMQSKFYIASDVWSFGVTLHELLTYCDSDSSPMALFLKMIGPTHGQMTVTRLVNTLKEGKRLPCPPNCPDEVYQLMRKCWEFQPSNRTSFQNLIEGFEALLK
As to the kind of experiment: Immunoblot of JAK1 protein level in RS4;11 cells. Particulars: 24 hours; for JAK1 protein level: immunoblot (FIG. 2). How it is done:
RS4;11 cells were treated with compounds at indicated concentrations for 24 hours. […] The concentrations required to reduce JAK1 by 50% (DC50) were below 5 nM and 35 nM for compound JA-189 and JA213, respectively.
as §2, §3
Cultured cells were washed with cold PBS once and lysed in cold RIPA buffer supplemented with protease inhibitors and phosphatase inhibitors (Beyotime Biotechnology). The solutions were then incubated at 4° C. for 30 minutes with gentle agitation to fully lyse cells. Cell lysates were centrifuged at 13,000 rpm for 10 minutes at 4° C. and pellets were discarded. Total protein concentrations in the lysates were determined by BCA assays (Beyotime Biotechnology). Cell lysates were mixed with Laemmli loading buffer to 1× and heated at 99° C. for 5 min. Proteins were resolved on SDS-PAGE and visualized by chemiluminescence. Images were taken by a ChemiDoc MP Imaging system (Bio-Rad). Protein bands were quantitated using the accompanied software provided by Bio-Rad.

In a further series the test system is MM.1S cells. The experiment in a line: Cell viability assay (CellTiter-Glo) in MM.1S cells. Particulars: Homo sapiens, MM1.S, 72 h, Multiple Myeloma, 3 days. How it is done: as §6, §2, §5

On to `O=C1CCC(N2C(=O)c3ccc(NCCCCCC(=O)N4CCC(n5cc(-c6cnc7cccc(-c8cc(F)c(CN9CCOCC9)c(F)c8)c7n6)cn5)CC4)cc3C2=O)C(=O)N1` (stereo not shown) [JA-189, 5-((6-(4-(4-(8-(3,5-difluoro-4-(morpholinomethyl)phenyl)quinoxalin-2-yl)-1H-pyrazol-1-yl)piperidin-1-yl)-6-oxohexyl)amino)-2-(2,6-dioxopiperidin-3-yl)isoindoline-1,3-dione], for which, in the series on p-STAT5, the “down stream signaling, p-STAT5 band” value is “weaker bands of p-STAT3 and p-STAT5”. For the same molecule, the “sensitivity of non-cancerous cells (cell viability)” value in series [1] is listed as “not sensitive”. Besides, the concentration for half-maximal inhibition (IC50) with CCRF-CEM cells came to 3.84 nM; in the series with MV4;11 cells, 7.93 nM; with NOMO-1 cells it was 53.2 nM; in the series with MM.1S cells, 2.27 nM. Moreover, the JAK3 protein level entry on JAK3 is “able to reduce JAK1, JAK2 and JAK3 protein levels”. In the series on MV4;11 cells, the “cell viability inhibition in combination with pomalidomide” value is recorded as “greatly reduce the potencies of the degraders”. The JAK1 protein level entry at JAK1 is “even better activity in reducing the JAK1 and JAK3 protein levels”. At JAK1 (immunoblot, read-out: concentration required to reduce JAK1 by 50% (DC50)), the DC50 is < 5 nM.
Regarding `CS(=O)(=O)c1ccc(-c2cccc3nc(Nc4ccc(N5CCN(CC(=O)NCCCCCCCCNc6ccc7c(c6)C(=O)N(C6CCC(=O)NC6=O)C7=O)CC5)cc4)nn23)cc1` (stereo not shown) [JA-213], the “down stream signaling, p-STAT5 band” value in the series with p-STAT5 is “weaker bands of p-STAT3 and p-STAT5”. Besides, in series [1], the “sensitivity of non-cancerous cells (cell viability)” value is given as “not sensitive”. Moreover, the IC50 in the series on CCRF-CEM cells stood at 19.1 nM; with MV4;11 cells, 19.6 nM; in the series on NOMO-1 cells, 81.7 nM; in the series on MM.1S cells, 23.1 nM. Moreover, the JAK3 protein level entry on JAK3 was “able to reduce JAK1, JAK2 and JAK3 protein levels”. Further, the “cell viability inhibition in combination with pomalidomide” value in the series on MV4;11 cells is given as “greatly reduce the potencies of the degraders”. Besides, the JAK1 protein level result at JAK1 was “even better activity in reducing the JAK1 and JAK3 protein levels”.

For orientation: IC50 means the concentration at which inhibition is half-maximal. A lower IC50 goes with greater potency.

The values are drawn from patent US20230093099A1, “COMPOUNDS AND METHODS OF TREATING CANCERS” (CULLGEN (SHANGHAI), INC., priority 2019, published 2023).
